{"source": "patent US9273063B2", "about": "“Method for preparing a rifaximin product” (Salix Pharmaceuticals, Inc., priority 2007, dated 2016)", "key": {"[1]": {"experiment": "Dissolution in ethanol, amorphous vs crystalline form", "format": "physicochemical", "conditions": "without stirring", "protocol": "The dissolution profile of the substance in amorphous form was also determined, and compared with that of the substance in crystalline form."}, "[2]": {"experiment": "Water solubility in dissolution tester (distilled water, 37° C., 100 rpm, spectrophotometric analysis)", "format": "physicochemical", "conditions": "37° C.±0.5° C.", "protocol": "Moreover, with regard to water solubility, after conditioning a dissolution tester (Pharma Test Type PTW S III s/n 5390) using distilled water at a temperature of 37° C.±0.5° C. at a speed of 100 rpm, four dissolutions were carried out, in each of which the first three vessels of the dissolution tester were used for the substance in crystalline form and the last three for the substance in amorphous form.\n10 ml of the solute were withdrawn from each vessel after 15 minutes of stirring; the withdrawn samples were filtered with 0.45 μm filters and subjected to spectophotometric analysis, repeating the operation after 30 and 60 minutes."}}, "data": [{"smiles": "CO[C@H]1/C=C/O[C@@]2(C)Oc3c(C)c(O)c4c(O)c(c5c(nc6cc(C)ccn65)c4c3C2=O)NC(=O)/C(C)=C\\C=C\\[C@H](C)[C@H](O)[C@@H](C)[C@@H](O)[C@@H](C)[C@H](OC(C)=O)[C@@H]1C", "note": "[crystalline form, Rifaximin]", "values": [{"measurement": "dissolution behaviour in ethanol", "setting": "[1]", "result": "less wettable"}, {"measurement": "concentration of dissolved substance relative to that of the substance in amorphous form", "setting": "[2]; after one hour of dissolution", "result": "about 7%"}]}, {"smiles": "CO[C@H]1/C=C/O[C@@]2(C)Oc3c(C)c(O)c4c(O)c(c5c(nc6cc(C)ccn65)c4c3C2=O)NC(=O)/C(C)=C\\C=C\\[C@H](C)[C@H](O)[C@@H](C)[C@@H](O)[C@@H](C)[C@H](OC(C)=O)[C@@H]1C", "note": "[amorphous form, Rifaximin]", "values": [{"measurement": "dissolution behaviour in ethanol", "setting": "[1]", "result": "easily dissolves in ethanol even without stirring"}, {"measurement": "dissolved percentage compared with that of the substance in crystalline form", "setting": "[2]", "result": "one order of magnitude greater"}]}]}
